US11945822B2, “Pyrazolo-triazine and/or pyrazolo-pxrimidine derivatives as selective inhibitor of cyclin dependent kinase” (QURIENT CO., LTD., priority 2018, dated 2024)
Where two headings read alike, the source gives them in different places.

Legend:
MOLT-4 = assay: Cellular MOLT-4 viability assay (CellTiter-Glo, 72 hours); assay type: cell-based; settings: Homo sapiens, MOLT4 viability assay
Method: All cell lines were routinely tested for mycoplasma.
The effect of the CDK7 inhibitor to inhibit the growth of target cancer cells was evaluated through the 72 hours time period of viability assay. Briefly, the candidate cell line ware plated in 96 well plate at the following density of cells respectively. […] DMSO solvent without compound served as a control and final DMSO concentration less than 0.1%. After 72 hours of incubation at 37° C., 5% CO2 incubator, cells were analyzed for the viability using the CellTiter-Glo Luminescent Cell Viability Assay (Promega, Cat #G7570). All viability assays were performed in duplicate and Luminescence was read using an Envision (Perkin Elmer, USA). Data was analyzed using XLfit software.

CDK1/Cyclin B = target: T1, CDK1/Cyclin B (Homo sapiens, UniProt P06493); assay: Enzymatic assay for CDK1 (FRET based LANCE Ultra kinase assay); assay type: biochemical
T1 construct: purchased Invitrogen PR4768C
Method in brief: (§1)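 TR-FRET (LANCE Ultra) kinase assay at ATP Km, ULight-MBP peptide substrate (68 nM), 8-dose 4-fold compound series in DMSO. Enzymes: […]; 60 min at 23° C., stopped with EDTA plus Eu-anti-phospho-MBP antibody, read 665/615 nm after 60 min.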

CDK2/Cyclin A = target: T2, CDK2/Cyclin A (Homo sapiens, UniProt P24941); assay: Enzymatic assay for CDK2 (FRET based LANCE Ultra kinase assay); assay type: biochemical
T2 construct: purchased Invitrogen PV6290
Method in brief: as §1

CDK5/p25 = target: T3, CDK5/p25 (Homo sapiens, UniProt Q00535); assay: Enzymatic assay for CDK5 (FRET based LANCE Ultra kinase assay); assay type: biochemical
T3 construct: purchased Invitrogen PR8543B
Method in brief: as §1

CDK7/Cyclin H/MNAT1 = target: T4, CDK7/Cyclin H/MNAT1 (Homo sapiens, UniProt P50613); assay: Enzymatic assay for CDK7 (FRET based LANCE Ultra kinase assay); assay type: biochemical
T4 construct: purchased Invitrogen PR6749B
Method in brief: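 Inhibition was measured at Km ATP by time-resolved FRET between a Eu anti-phospho antibody and a phosphorylated ULight peptide. The enzyme was the purified CDK7/cyclin complex, and data were curve-fitted.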

HCT116 = assay: Cellular HCT116 viability assay (CellTiter-Glo, 72 hours); assay type: cell-based; settings: Homo sapiens, HCT-116
Method in brief: (§2)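 Luminescent ATP read-out (CellTiter-Glo) after 72 h compound exposure at 37 °C/5% CO2; duplicate wells; vehicle control DMSO <0.1% final; seeding density set per cell line.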

H460 = assay: Cellular H460 viability assay (CellTiter-Glo, 72 hours); assay type: cell-based; settings: Homo sapiens, NCI-H460
Method in brief: as §2

MV4-11 = assay: Cellular MV4-11 viability assay (CellTiter-Glo, 72 hours); assay type: cell-based; settings: Homo sapiens
Method in brief: as §2

[1] = read-out: CDK1 enzymatic activity (IC50 range)
[2] = read-out: CDK2 enzymatic activity (IC50 range)
[3] = read-out: CDK5 enzymatic activity (IC50 range)
[4] = read-out: CDK7 enzymatic activity (IC50 range)

T4 sequence (P50613 whole entry): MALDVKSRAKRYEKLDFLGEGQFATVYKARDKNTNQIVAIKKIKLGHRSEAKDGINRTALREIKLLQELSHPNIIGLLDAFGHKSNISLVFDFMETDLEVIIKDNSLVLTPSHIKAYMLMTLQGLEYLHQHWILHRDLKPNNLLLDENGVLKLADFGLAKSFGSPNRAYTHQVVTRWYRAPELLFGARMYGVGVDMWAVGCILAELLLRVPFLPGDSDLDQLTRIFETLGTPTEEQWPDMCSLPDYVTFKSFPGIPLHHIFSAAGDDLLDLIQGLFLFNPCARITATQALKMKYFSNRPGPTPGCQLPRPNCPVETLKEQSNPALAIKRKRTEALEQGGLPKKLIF
T4 sequence (P51946 whole entry partner): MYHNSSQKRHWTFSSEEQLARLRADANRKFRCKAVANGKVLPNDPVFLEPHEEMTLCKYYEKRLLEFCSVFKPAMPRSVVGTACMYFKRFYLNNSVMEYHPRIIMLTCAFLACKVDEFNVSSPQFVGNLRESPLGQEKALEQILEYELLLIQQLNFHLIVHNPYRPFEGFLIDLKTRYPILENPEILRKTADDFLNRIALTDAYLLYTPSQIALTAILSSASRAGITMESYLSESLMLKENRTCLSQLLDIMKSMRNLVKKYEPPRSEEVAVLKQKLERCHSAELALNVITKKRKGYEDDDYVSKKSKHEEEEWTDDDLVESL
T4 sequence (P51948 whole entry partner): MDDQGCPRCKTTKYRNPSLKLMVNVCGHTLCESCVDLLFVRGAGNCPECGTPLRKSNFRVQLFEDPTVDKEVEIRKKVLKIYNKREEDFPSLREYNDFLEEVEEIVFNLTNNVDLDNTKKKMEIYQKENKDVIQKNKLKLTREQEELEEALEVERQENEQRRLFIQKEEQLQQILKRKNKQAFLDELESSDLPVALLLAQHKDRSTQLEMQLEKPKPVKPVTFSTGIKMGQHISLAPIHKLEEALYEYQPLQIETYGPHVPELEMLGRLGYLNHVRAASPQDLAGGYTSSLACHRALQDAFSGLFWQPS
T3 sequence (Q00535 whole entry): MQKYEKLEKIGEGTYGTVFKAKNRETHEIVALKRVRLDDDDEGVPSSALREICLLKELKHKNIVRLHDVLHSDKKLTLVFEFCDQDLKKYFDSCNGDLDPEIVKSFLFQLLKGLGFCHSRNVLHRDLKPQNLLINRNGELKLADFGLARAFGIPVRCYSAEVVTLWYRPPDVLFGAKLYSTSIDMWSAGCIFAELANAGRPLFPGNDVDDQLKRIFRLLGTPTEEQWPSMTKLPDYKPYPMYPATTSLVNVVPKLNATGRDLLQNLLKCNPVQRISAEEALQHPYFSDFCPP
T3 sequence (Q15078 99-307 partner limits assumed): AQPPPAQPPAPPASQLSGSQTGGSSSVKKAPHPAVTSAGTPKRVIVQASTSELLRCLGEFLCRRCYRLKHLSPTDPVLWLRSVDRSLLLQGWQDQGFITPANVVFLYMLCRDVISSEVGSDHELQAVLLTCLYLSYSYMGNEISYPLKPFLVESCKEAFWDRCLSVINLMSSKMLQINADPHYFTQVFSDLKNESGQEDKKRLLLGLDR
T1 sequence (P06493 whole entry): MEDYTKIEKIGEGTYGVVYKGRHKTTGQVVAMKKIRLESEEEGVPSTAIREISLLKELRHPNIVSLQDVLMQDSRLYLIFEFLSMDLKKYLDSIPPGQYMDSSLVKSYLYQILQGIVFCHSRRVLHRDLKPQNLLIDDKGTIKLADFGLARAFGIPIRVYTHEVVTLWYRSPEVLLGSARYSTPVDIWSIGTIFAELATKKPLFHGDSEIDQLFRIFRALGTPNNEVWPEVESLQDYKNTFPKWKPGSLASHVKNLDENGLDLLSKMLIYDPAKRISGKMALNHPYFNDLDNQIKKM
T1 sequence (P14635 whole entry partner): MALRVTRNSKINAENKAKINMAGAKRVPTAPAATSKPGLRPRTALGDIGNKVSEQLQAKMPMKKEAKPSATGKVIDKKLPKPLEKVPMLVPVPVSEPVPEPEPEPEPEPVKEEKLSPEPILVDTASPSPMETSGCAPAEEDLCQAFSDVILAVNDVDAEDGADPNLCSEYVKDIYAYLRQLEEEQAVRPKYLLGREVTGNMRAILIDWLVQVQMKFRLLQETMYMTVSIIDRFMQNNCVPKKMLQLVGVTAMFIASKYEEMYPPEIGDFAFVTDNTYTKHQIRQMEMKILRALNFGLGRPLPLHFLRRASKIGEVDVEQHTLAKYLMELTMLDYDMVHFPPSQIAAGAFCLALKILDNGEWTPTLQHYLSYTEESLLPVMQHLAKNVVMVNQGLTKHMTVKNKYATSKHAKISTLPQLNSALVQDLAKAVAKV

SMILES	IC50 (MOLT-4)	IC50 (CDK1/Cyclin B; [1])	IC50 (CDK2/Cyclin A; [2])	IC50 (CDK5/p25; [3])	CDK1/CDK7: Selectivity of CDK7 inhibition over CDK1 inhibition (CDK7/Cyclin H/MNAT1; CDK7 over CDK1)	CDK2/CDK7: Selectivity of CDK7 inhibition over CDK2 inhibition (CDK7/Cyclin H/MNAT1; CDK7 over CDK2)	CDK5/CDK7: Selectivity of CDK7 inhibition over CDK5 inhibition (CDK7/Cyclin H/MNAT1; CDK7 over CDK5)	IC50 (CDK7/Cyclin H/MNAT1; [4])	IC50 (HCT116)	IC50 (H460)	IC50 (MV4-11)	IC50 (CDK1/Cyclin B; read-out: CDK1 enzymatic activity (IC50 activity range))	IC50 (CDK2/Cyclin A; read-out: CDK2 enzymatic activity (IC50 activity range))	IC50 (CDK5/p25; read-out: CDK5 enzymatic activity (IC50 activity range))	CDK1/CDK7: Selectivity of CDK7 inhibition over CDK1 inhibition (CDK7/Cyclin H/MNAT1; CDK1/CDK7)	CDK2/CDK7: Selectivity of CDK7 inhibition over CDK2 inhibition (CDK7/Cyclin H/MNAT1; CDK2/CDK7)	CDK5/CDK7: Selectivity of CDK7 inhibition over CDK5 inhibition (CDK7/Cyclin H/MNAT1; CDK5/CDK7)	IC50 (CDK7/Cyclin H/MNAT1; read-out: CDK7 enzymatic activity (IC50 activity range))
NC1CCN(c2nc(NCc3ccccc3-n3cccn3)n3ncc(F)c3n2)CC1 [Compound 37]	> 10 µM	–	–	–	–	–	–	–	–	–	–	–	–	–	–	–	–	–
CC(C)c1cnn2c(NCc3ccccc3Oc3cccc(NC(=O)CCCN(C)C)c3)nc(N3CCC(N)CC3)nc12 [Compound 82]	1 to 10 µM	–	–	–	–	–	–	–	–	–	–	–	–	–	–	–	–	–
CC(C)c1cnn2c(NCc3cccc(Oc4cccc(NC(=O)CCCN(C)C)c4)c3)nc(N3CCC(N)CC3)nc12 [Compound 84]	1 to 10 µM	–	–	–	–	–	–	–	–	–	–	–	–	–	–	–	–	–
CC(C)c1cnn2c(NCc3cccc(N4CCN(C(=O)CCCN(C)C)CC4)c3)nc(N3CCC(N)CC3)nc12 [Compound 85]	> 10 µM	–	–	–	–	–	–	–	–	–	–	–	–	–	–	–	–	–
CC(C)c1cnn2c(NCc3ccccc3-n3cccn3)nc(Oc3ccc(N4CCCC4)cc3)nc12 [Compound 162]	> 10 µM	–	–	–	–	–	–	–	–	–	–	–	–	–	–	–	–	–
CC(C)c1cnn2c(NCc3ccccc3-n3ccc(C(C)(C)O)n3)nc(N3CCC(CN)CC3)nc12 [Compound 221]	–	> 1 µM	> 1 µM	> 1 µM	A (A=greater than 200 fold)	A (A=greater than 200 fold)	A (A=greater than 200 fold)	< 0.1 µM	< 1 µM	< 1 µM	< 1 µM	–	–	–	–	–	–	–
CC(C)c1cnn2c(NCc3ccccc3-c3ccc4ccccc4n3)nc(NCC3CCNCC3O)nc12 (stereo not drawn) [Compound 222]	–	> 1 µM	0.1 to 1 µM	0.1 to 1 µM	A (A=greater than 200 fold)	A (A=greater than 200 fold)	A (A=greater than 200 fold)	< 0.1 µM	< 1 µM	< 1 µM	< 1 µM	–	–	–	–	–	–	–
CC(C)c1cnn2c(NCc3ccccc3-n3ccc(C(C)(C)O)n3)nc(NCC3CCNCC3O)nc12 (stereo not drawn) [Compound 223]	–	> 1 µM	> 1 µM	> 1 µM	A (A=greater than 200 fold)	B (B=less than 200 fold, but greater than 20 fold)	B (B=less than 200 fold, but greater than 20 fold)	< 0.1 µM	< 1 µM	< 1 µM	< 1 µM	–	–	–	–	–	–	–
CC(C)c1cnn2c(NCc3ccccc3-n3ccc(C(C)(C)O)n3)nc(NCC3CCNCC3)nc12 [Compound 224]	–	> 1 µM	> 1 µM	> 1 µM	A (A=greater than 200 fold)	A (A=greater than 200 fold)	A (A=greater than 200 fold)	< 0.1 µM	< 1 µM	< 1 µM	< 1 µM	–	–	–	–	–	–	–
CC(C)c1cnn2c(NCc3ccccc3-n3ccc(C(C)(C)O)n3)nc(OCC3CCNCC3)nc12 [Compound 227]	–	> 1 µM	> 1 µM	> 1 µM	A (A=greater than 200 fold)	A (A=greater than 200 fold)	A (A=greater than 200 fold)	< 0.1 µM	< 1 µM	< 1 µM	1 to 10 µM	–	–	–	–	–	–	–
CC(C)c1cnn2c(NCc3ccccc3-n3ccc(C(C)(C)O)n3)nc(N3CCC(O)(CN)CC3)nc12 [Compound 228]	–	> 1 µM	> 1 µM	0.1 to 1 µM	A (A=greater than 200 fold)	A (A=greater than 200 fold)	A (A=greater than 200 fold)	< 0.1 µM	< 1 µM	< 1 µM	< 1 µM	–	–	–	–	–	–	–
CC(C)c1cnn2c(NCc3ccccc3-n3ccc(C(C)(C)O)n3)nc(NCC3(O)CCNCC3)nc12 [Compound 229]	–	> 1 µM	0.1 to 1 µM	0.1 to 1 µM	B (B=less than 200 fold, but greater than 20 fold)	C (C=less than 20 fold)	C (C=less than 20 fold)	< 0.1 µM	1 to 10 µM	1 to 10 µM	1 to 10 µM	–	–	–	–	–	–	–
Cc1cccc(-n2ccc(C(C)(C)O)n2)c1CNc1nc(NCC2CCNCC2)nc2c(C(C)C)cnn12 [Compound 232]	–	> 1 µM	> 1 µM	> 1 µM	A (A=greater than 200 fold)	A (A=greater than 200 fold)	A (A=greater than 200 fold)	< 0.1 µM	1 to 10 µM	1 to 10 µM	1 to 10 µM	–	–	–	–	–	–	–
Cc1cccc(C)c1CNc1nc(N2CCC(N)CC2)nc2c(C(C)C)cnn12 [Compound 235]	–	> 1 µM	> 1 µM	0.1 to 1 µM	A (A=greater than 200 fold)	B (B=less than 200 fold, but greater than 20 fold)	B (B=less than 200 fold, but greater than 20 fold)	< 0.1 µM	1 to 10 µM	1 to 10 µM	1 to 10 µM	–	–	–	–	–	–	–
CC(C)c1cnn2c(NCc3ccccc3-n3ccc(C(C)(C)O)n3)nc(N3CCC(N)CC3)nc12 [Compound 236]	–	0.1 to 1 µM	0.1 to 1 µM	0.1 to 1 µM	A (A=greater than 200 fold)	B (B=less than 200 fold, but greater than 20 fold)	B (B=less than 200 fold, but greater than 20 fold)	< 0.1 µM	< 1 µM	< 1 µM	< 1 µM	–	–	–	–	–	–	–
CC[C@@H](N)COc1nc(NCc2ccccc2-c2ccc3ccccc3n2)n2ncc(C(C)C)c2n1 [Compound 237]	–	> 1 µM	> 1 µM	> 1 µM	A (A=greater than 200 fold)	A (A=greater than 200 fold)	A (A=greater than 200 fold)	< 0.1 µM	1 to 10 µM	1 to 10 µM	1 to 10 µM	–	–	–	–	–	–	–
CC(C)c1cnn2c(NCc3c(Cl)cccc3C(C)(C)O)nc(N3CCC(N)CC3)nc12 [Compound 239]	–	> 1 µM	> 1 µM	> 1 µM	A (A=greater than 200 fold)	A (A=greater than 200 fold)	A (A=greater than 200 fold)	< 0.1 µM	1 to 10 µM	1 to 10 µM	1 to 10 µM	–	–	–	–	–	–	–
CC(C)c1cnn2c(NCc3c(Cl)cccc3Cl)nc(N3CCC(N)CC3)nc12 [Compound 257]	–	–	–	–	–	–	–	–	< 1 µM	< 1 µM	< 1 µM	> 1 µM	0.1 to 1 µM	0.1 to 1 µM	A (A=greater than 200 fold)	B (B=less than 200 fold, but greater than 20 fold)	B (B=less than 200 fold, but greater than 20 fold)	< 0.1 µM
